Data from patent publication US8133692B2, “Methods of predicting responsiveness to chemotherapeutic agents and selecting treatments” (University of South Florida, priority 2005, dated 2012).
e = 2'-O-(2-methoxyethyl) (MOE); d = 2'-deoxy (DNA)

Legend:
Assay type in all cases: cell-based, human
[1] = test system: MDA-MB-435s and MDA-MB-231 cells; experiment: Apoptosis assays (microscopy, in situ TUNEL, PARP cleavage Western blot) in breast cancer cells
Procedure: To assess whether apoptosis was occurring in the cells after blocking of Stat3 the cells were examined microscopically and a TUNEL assay and poly-(ADP)-ribose polymerase (PARP) cleavage assay were performed.
(§1) In situ terminal deoxyribonucleotidyl transferase-mediated dUTP nick end labeling and cellular proliferation assays. MDA-MB-435s and MDA-MB-231 cells were transfected with antisense or control mismatch oligonucleotides. After 48 hours, cells were labeled for apoptotic DNA strand breaks by terminal deoxyribonucleotidyl transferase-mediated dUTP nick end labeling (TUNEL) reaction using an in situ cell death detection assay (Roche Applied Science, Indianapolis, Ind.) according to the instructions of the supplier. TUNEL-positive nuclei were counted and the apoptotic index was expressed as the number of apoptotic cells in one microscopic field. To determine cellular viability, cells were harvested by trypsinization and counted by trypan blue exclusion assay at 24 and 48 hours after transfection. All experiments were done in triplicate.
(§2) Western blot analyses. Cells were lysed in a buffer containing 10 mmol/L Tris-HCl (pH 8.0), 150 mmol/L NaCl, 1% NP40, 0.5% sodium deoxycholate, 0.1% SDS, 1 mmol/L EDTA (pH 8.0), 2 mmol/L phenylmethylsulfonyl fluoride, 2 μg/mL aprotinin, 2 μg/mL leupeptin, and 1 mmol/L Na3VO4. For Western blot analyses, 30 μg of total extracted proteins were applied per lane before SDS-PAGE. Following transfer to nitrocellulose membranes, protein expression levels were detected using polyclonal anti-poly-(ADP-ribose) polymerase antibodies (Cell Signaling Technology, Beverly, Mass.). The expression of β-actin (Sigma-Aldrich, St. Louis, Mo.) was used as a normalization control for protein loading.

Stat3 [2] = experiment: IL-6 stimulation: EMSA of Stat3 DNA-binding activity; details: serum-starved MDA-MB-435s cells; IL-6 20 or 30 ng/mL; within 30 minutes
Procedure: Nuclear extract preparation and EMSA. Nuclear extracts were prepared as previously described by Yu et al., Science 269:81-83 (1995), which is incorporated herein by reference, by high-salt extraction into 30 to 70 μL buffer [20 mmol/L HEPES (pH 7.9), 420 mmol/L NaCl, 1 mmol/L EDTA, 20% glycerol, 20 mmol/L NaF, 1 mmol/L Na3VO4, 1 mmol/L Na4P2O7, 1 mmol/L DTT, 0.5 mmol/L phenylmethylsulfonyl fluoride, 0.1 μmol/L aprotinin, 1 μmol/L leupeptin, and 1 μmol/L antipain]. For EMSA, 5 μg of total nuclear protein were used for each lane. EMSA was done using a ^32P-labeled oligonucleotide probe containing a high-affinity cis-inducible element (hSIE, m67 variant) derived from the c-fos gene promoter (sense strand 5′[…]-3′) (SEQ ID NO: 3) that binds activated Stat3 proteins. Following incubation of radiolabeled probes with nuclear extracts, protein-DNA complexes were resolved by nondenaturing PAGE and detected by autoradiography. Stat3 protein was supershifted in the EMSA by preincubation with Stat3 antibody (C-20X, Santa Cruz Biotechnology, Santa Cruz, Calif.).
To investigate whether cytokine-induced Stat3 activity correlates with increased Survivin expression in breast cancer cells, cells were stimulated with IL-6 to increase Stat3 activation. […]

MDA-MB-435s cells [3] = experiment: IL-6 stimulation: Western blot for phosphor-Stat3 and Survivin; details: IL-6 treatment, after 48 hours
Procedure: as §2
To investigate whether cytokine-induced Stat3 activity correlates with increased Survivin expression in breast cancer cells, cells were stimulated with IL-6 to increase Stat3 activation. For IL-6 stimulation, cells were serum-starved (DMEM supplemented with 0.1% fetal bovine serum) for 18 hours before IL-6 treatment (20 or 30 ng/mL in DMEM) for 30 minutes (EMSA) or 48 hours (Western blot analysis). Nuclear extracts and cell lysates were prepared for EMSA and Western blot analysis, respectively, as described above.

Stat3 mRNA = experiment: RNase protection assay of Stat3 mRNA after transfection with antisense oligonucleotides; details: MDA-MB-435s cells; compared with the mismatch oligonucleotides; 24 and 36 hours after transfection
Procedure: (§3) The human breast cancer cell line MDA-MB-435s, harbors activated Stat3. The cells were grown in DMEM supplemented with 10% fetal bovine serum, 100 units/mL penicillin, and 100 μg/mL streptomycin. The cells were transfected with Stat3 antisense or mismatch oligonucleotides using Lipofectamine-Plus as described by the supplier (Life Technologies, Grand Island, N.Y.). The Stat3 antisense (5′[…]-3′) (SEQ ID NO: 1) and control mismatch (5′[…]-3′) (SEQ ID NO: 2) oligonucleotides were synthesized using phosphorothioate chemistry. To increase stability, oligonucleotides were synthesized with 2′-O-methoxyethyl modification of the five or three underlined terminal nucleotides. The final concentration for Stat3 antisense and control mismatch oligonucleotides was […]. Twenty-four and 36 hours after transfection, the mRNA levels and DNA-binding activities of Stat3 were measured by RNase protection and electrophoretic mobility shift (EMSA) assays, respectively.
RNase protection assay. Total RNA was isolated from MDA-MB-435s cells using the RNAeasy mini kit (Qiagen, Valencia, Calif.). RNase protection assays were carried out with the Riboquant hStress-1 template set containing Bcl-xL and Mcl-1 probes or custom-made multiprobe templates containing Stat3 probes (BD PharMingen, San Diego, Calif.). […]

Stat3 [4] = experiment: EMSA of Stat3 DNA-binding activity after antisense transfection; details: MDA-MB-435s cells, 24 and 36 hours after transfection
Procedure: as §3
Nuclear extract preparation and EMSA. […] Following incubation of radiolabeled probes with nuclear extracts, protein-DNA complexes were resolved by nondenaturing PAGE and detected by autoradiography. […]

[5] = test system: MDA-MB-435s and MDA-MB-231 cells; experiment: Cellular viability by trypan blue exclusion assay; details: after 24 or 48 hours of incubation
Procedure: as §1

MDA-MB-435s cells [6] = experiment: Microarray gene expression profiling after blockade of Stat3; details: 24 hours
Procedure: Microarray gene expression profiling analyses were completed to assess the gene expression changes associated with blockade of Stat3 activity. Five micrograms of total RNA collected from MDA-MB-435s cells treated with antisense or control mismatch oligonucleotides for 24 hours served as the mRNA sources for microarray analysis. The poly(A) mRNA was specifically converted to cDNA and then amplified and labeled with biotin following the procedure initially described by Van Gelder et al., Proc. Natl. Acad. Sci. USA 87:1663-67 (1990) which is incorporated herein by reference. Hybridization with the biotin-labeled DNA, staining, and scanning of the microarray chips followed the prescribed procedure outlined in the Affymetrix technical manual.
The oligonucleotide probe arrays were Human Genome U133A chips (Affymetrix, Santa Clara, Calif.). Scanned output files were visually inspected for hybridization artifacts and then analyzed using Affymetrix Microarray MAS 5.0 software. The MAS 5.0 software identifies the increased and decreased genes between any two samples with a statistical algorithm that assesses the behavior of oligonucleotide probe sets designed to detect the same gene. Probe sets that yielded a change at P<0.0045 were identified as changed (increased or decreased). In addition, the data were processed using robust multiarray analysis as described by Bolstad et al., Bioinformatics 19:185-93 (2003) which is incorporated herein by reference in its entirety. […] Empirical estimates of the null distribution were determined using permutation analysis, thereby controlling the number of false positives. The significance analysis of microarrays (as described by Tusher et al., Proc Natl Acad Sci USA 98:5116-21 (2001), which is incorporated herein by reference) implements this approach to address the multiple testing problem and was also applied to the data analysis.

Survivin = experiment: RNase protection assay and Western blot for Survivin after Stat3 antisense
Procedure: RNase protection assay. Total RNA was isolated from MDA-MB-435s cells using the RNAeasy mini kit (Qiagen, Valencia, Calif.). RNase protection assays were carried out with the Riboquant hStress-1 template set containing Bcl-xL and Mcl-1 probes or custom-made multiprobe templates containing Stat3 probes (BD PharMingen, San Diego, Calif.). Briefly, the multiprobe templates were synthesized by in vitro transcription with incorporation of […] and purified on Quick Spin RNA columns (Roche Applied Science, Indianapolis, Ind.). Labeled probe (1×10^6 cpm) was hybridized with 10 μg of total RNA through a temperature gradient of 90° C. to 56° C. over a 16-hour period. […]
Western blot analyses. […] Following transfer to nitrocellulose membranes, protein expression levels were detected using polyclonal anti-poly-(ADP-ribose) polymerase antibodies (Cell Signaling Technology, Beverly, Mass.). […]
The microarray data were validated using an RNase protection assay using a Survivin probe (BD PharMingen, San Diego, Calif.) as described above. […] Protein expression levels were detected using polyclonal anti-Stat3 (Santa Cruz Biotechnology, Santa Cruz, Calif.) and polyclonal anti-Survivin (Alpha Diagnostics International, San Antonio, Tex.) antibodies.

[7] = test system: H1650, H1975 and H1299 cells; experiment: Western blot for Stat3, cleaved PARP and Bcl-2 family proteins after antisense Stat3 in NSCLC cells
Procedure: (§4) Protein expression analysis. Cell lysates were normalized for total protein content (50 μg) and subjected to SDS-PAGE as described by Song et al., Oncogene 22:4150-65 (2003). Primary antibodies used in these studies consisted of Stat3 (Transduction Laboratories; BD Biosciences, Mississauga, Ontario, Canada), pStat3 Y705 (Cell Signaling Technology), cleaved poly (ADP-ribose) polymerase (Cell Signaling Technology, Beverly, Mass.), Mcl-1 (Santa Cruz Biotechnology, Santa Cruz, Calif.), Bcl-2 (DAKO, Carpinteria, Calif.), Bcl-xL (PharMingen, San Diego, Calif.), and β-actin (Sigma-Aldrich, Milwaukee, Wis.). Detection of proteins was accomplished using horseradish peroxidase-conjugated secondary antibodies and enhanced chemiluminescence purchased through Amersham Biosciences (Pittsburgh, Pa.).
To determine if Stat3 plays a role in survival in EGFR mutant cells, antisense Stat3 oligonucleotides were used to down-regulate Stat3 as described above. […] Levels of the Bcl-2 family proteins Bcl-xL, Mcl-1, and Bcl-2 were reduced in cells treated with antisense Stat3 consistent with the known role of Stat3 in regulating these proteins (FIG. 9E).

phosphorylated Stat3 = experiment: Western blot for phosphorylated Stat3 after gefitinib in NSCLC cells; details: 24 hours
Procedure: as §4

[8] = Survivin antisense 300 nmol/L, MDA-MB-435s and MDA-MB-231 cells

antisense oligonucleotides directed against Survivin: Antisense oligonucleotides directed against Survivin 5′-CCCAGCCTTCCAGCTCCTTG-3′ (SEQ ID NO: 4), synthesized using phosphorothioate chemistry (sugars from the 5' end e3 d14 e3, all phosphorothioate, methylation of C not given here; listed as Homo sapiens)
Poly-(ADP-ribose) polymerase cleavage [1, 8]: evident | in situ TUNEL staining [1, 8]: evident

IL-6: interleukin-6, cytokine used to stimulate cells and increase Stat3 activation
Stat3 DNA-binding activity (EMSA) (Stat3 [2]): increases Stat3 DNA-binding activity | Survivin protein expression (Western blot) (MDA-MB-435s cells [3]): induced | phosphor-Stat3 levels (Western blot) (MDA-MB-435s cells [3]): induced

Stat3 antisense: Stat3 antisense 5′GCTCCAGCATCTGCTGCTTC-3′ (SEQ ID NO: 1), phosphorothioate chemistry with 2′-O-methoxyethyl modification of terminal nucleotides (sugars from the 5' end e5 d10 e5, all phosphorothioate, methylation of C not given here; listed as Homo sapiens)
Stat3 mRNA expression (Stat3 mRNA): diminished Stat3 mRNA expression | Stat3 DNA-binding activity (Stat3 [4]): significant decrease in Stat3 DNA-binding activity | apoptosis by in situ TUNEL assay ([1]; Stat3 antisense, 48 hours): occurrence of apoptosis was confirmed | cleavage of poly-(ADP-ribose) polymerase ([1]; Stat3 antisense, 48 hours after treatment): cleavage of poly-(ADP-ribose) polymerase | vacuolated cells and cellular debris (light microscopy) ([1]; incubation for up to 48 hours): marked increase in vacuolated cells and cellular debris | growth inhibition by trypan blue exclusion [5]: induced significant growth inhibition | expression of Bcl-2 family proteins by microarray analysis (MDA-MB-435s cells [6]): did not reveal consistent decreases | expression of other IAP family members (X-linked IAP, cellular IAP-1, cellular IAP-2) by microarray (MDA-MB-435s cells [6]): no change | expression of Survivin by microarray analysis (MDA-MB-435s cells [6]; antisense vs control mismatch): found to be diminished | mRNA expression of Survivin (RNase protection assay) (Survivin; antisense oligonucleotide-treated breast cancer cells): decrease in mRNA expression of Survivin | Survivin protein expression (Western blot) (Survivin; breast cancer cells): decreased Survivin expression | apoptosis ([7]; H1299 cells, despite Stat3 knock-down): No apoptosis was observed | Stat3 protein levels ([7]; H1650 and H1975 cells): decreased Stat3 protein levels | cleavage of poly(ADP-ribose) polymerase indicative of apoptosis ([7]; H1650 and H1975 cells): cleavage of poly(ADP-ribose) polymerase | Levels of the Bcl-2 family proteins Bcl-xL, Mcl-1, and Bcl-2 ([7]; cells treated with antisense Stat3 vs mismatch control): reduced

COc1cc2ncnc(Nc3ccc(F)c(Cl)c3)c2cc1OCCCN1CCOCC1 [gefitinib, Gefitinib]
phosphorylated Stat3 (phosphorylated Stat3; H1650 cells with the L746-p753 deletion mutation in EGFR): no effect on phosphorylated Stat3 | phosphorylated Stat3 (phosphorylated Stat3; H1975 cells): no effect on phosphorylated Stat3 | phosphorylated Stat3 (phosphorylated Stat3; H3255 cells with the L858R mutation in EGFR, increasing doses): complete inhibition of phosphorylated Stat3
